This note sets out measurements from patent US9260408B2, “Dihydroquinoline-2-one derivatives” (Hoffmann-La Roche Inc., priority 2011, dated 2016).

Experiment [1] has as its target T1, human CYP11B2 (Homo sapiens, UniProt P19099).
T1 construct: expressed in transfected cells
T1 sequence (P19099 25-503): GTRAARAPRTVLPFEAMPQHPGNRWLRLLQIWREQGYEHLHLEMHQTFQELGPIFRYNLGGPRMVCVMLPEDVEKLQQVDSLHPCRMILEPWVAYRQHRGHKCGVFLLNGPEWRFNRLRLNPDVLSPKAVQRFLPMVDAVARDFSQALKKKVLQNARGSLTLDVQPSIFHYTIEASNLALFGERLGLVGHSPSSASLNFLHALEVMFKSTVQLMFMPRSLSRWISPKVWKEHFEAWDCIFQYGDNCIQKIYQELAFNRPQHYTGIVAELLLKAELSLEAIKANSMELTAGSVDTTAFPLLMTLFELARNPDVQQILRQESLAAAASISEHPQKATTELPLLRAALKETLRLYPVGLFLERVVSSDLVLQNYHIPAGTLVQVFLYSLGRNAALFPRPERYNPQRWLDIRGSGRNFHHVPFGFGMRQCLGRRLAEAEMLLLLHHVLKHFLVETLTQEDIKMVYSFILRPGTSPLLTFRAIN
The experiment in a line: G-402 cellular enzyme assay, human CYP11B2 (aldosterone release, HTRF). Format: cell-based. The settings on record: G-402 cells expressing human CYP11B2; 1 μM Deoxycorticosterone. In outline: (§1)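 EC50 comes from least-squares fitting of a 4-parameter MMF curve to steroid product levels, measured by HTRF as aldosterone for CYP11B2 or cortisol for CYP11B1. Stably transfected G-402 host cells were given substrate (1 μM deoxycorticosterone or deoxycortisol, respectively) with inhibitor for 16 h in medium with 2.5% charcoal-treated FCS.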

For experiment [2], the target named is T2, human CYP11B1 (Homo sapiens, UniProt P15538).
T2 construct: expressed in transfected cells
T2 sequence (P15538 25-503): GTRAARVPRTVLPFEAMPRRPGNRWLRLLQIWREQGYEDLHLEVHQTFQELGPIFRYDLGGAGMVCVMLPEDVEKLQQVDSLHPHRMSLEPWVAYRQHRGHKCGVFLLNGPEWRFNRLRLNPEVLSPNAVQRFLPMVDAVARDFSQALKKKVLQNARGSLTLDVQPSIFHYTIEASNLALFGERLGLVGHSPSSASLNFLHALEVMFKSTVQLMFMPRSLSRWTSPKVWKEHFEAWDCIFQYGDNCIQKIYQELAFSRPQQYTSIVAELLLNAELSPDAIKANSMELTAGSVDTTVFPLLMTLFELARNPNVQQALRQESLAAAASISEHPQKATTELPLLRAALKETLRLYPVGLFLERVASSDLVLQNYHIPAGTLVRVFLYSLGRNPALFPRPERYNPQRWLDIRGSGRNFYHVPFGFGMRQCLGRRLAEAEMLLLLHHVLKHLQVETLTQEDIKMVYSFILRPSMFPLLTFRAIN
The experiment in a line: G-402 cellular enzyme assay, human CYP11B1 (cortisol release, HTRF). The class given is cell-based. Conditions: G-402 cells expressing human CYP11B1; 1 μM Deoxycortisol. An outline of the steps:
as §1

Counter-ions that a name gives are not always drawn.

For `CN1C(=O)CCc2cc(-c3cncc(OC4CCN(C(=O)OC(C)(C)C)CC4)c3)ccc21` [Example 50, 4-[5-(1-Methyl-2-oxo-1,2,3,4-tetrahydro-quinolin-6-yl)-pyridin-3-yloxy]-piperidine-1-carboxylic acid tert-butyl ester], the figures for the EC50 in experiment [1] and in experiment [2] were 3 nM and 24 nM, respectively.

With `CN1C(=O)CCc2cc(-c3cncc(OC[C@@H]4CCCN4C(=O)OC(C)(C)C)c3)ccc21` [Example 51, (S)-2-[5-(1-Methyl-2-oxo-1,2,3,4-tetrahydro-quinolin-6-yl)-pyridin-3-yloxymethyl]-pyrrolidine-1-carboxylic acid tert-butyl ester], the EC50 in experiment [1] was determined as 32 nM; in experiment [2], 1870 nM.

Take `CN1C(=O)CCc2cc(-c3cncc(O[C@H]4CCN(C(=O)OC(C)(C)C)C4)c3)c(F)cc21` [Example 52, (S)-3-[5-(7-fluoro-1-methyl-2-oxo-1,2,3,4-tetrahydro-quinolin-6-yl)-pyridin-3-yloxy]-pyrrolidine-1-carboxylic acid tert-butyl ester]: the results for the EC50 in experiment [1] and in experiment [2] were 30 nM and 139 nM, respectively.

Take `CN1C(=O)CCc2cc(-c3cncc(O[C@@H]4CCN(C(=O)OC(C)(C)C)C4)c3)ccc21` [Example 53, (R)-3-[5-(1-Methyl-2-oxo-1,2,3,4-tetrahydro-quinolin-6-yl)-pyridin-3-yloxy]-pyrrolidine-1-carboxylic acid tert-butyl ester]: the values for the EC50 in experiment [1] and in experiment [2] were 8 nM and 453 nM, respectively.

As to `CCS(=O)(=O)NCc1cncc(-c2ccc3c(c2)CCC(=O)N3)c1` [Example 55, ethanesulfonic acid [5-(2-oxo-1,2,3,4-tetrahydro-quinolin-6-yl)-pyridin-3-ylmethyl]-amide], the EC50 was determined as 682 nM in experiment [1] and 11100 nM in experiment [2].

As for `CN1C(=O)CCc2cc(-c3cncc(C4(N)CC4)c3)ccc21` [Example 59, 6-[5-(1-Amino-cyclopropyl)-pyridin-3-yl]-1-methyl-3,4-dihydro-1H-quinolin-2-one], the concentration for a half-maximal effect (EC50) in experiment [1] was found to be 33 nM; in experiment [2] it was 710 nM.

Turning to `CN1C(=O)CCc2cc(-c3cncc(O[C@H]4CCCNC4)c3)ccc21` [Example 61, 1-Methyl-6-[5-((S)-piperidin-3-yloxy)-pyridin-3-yl]-3,4-dihydro-1H-quinolin-2-one], the figures for the EC50 in experiment [1] and in experiment [2] were 508 nM and 20100 nM, respectively.

With `CN1C(=O)CCc2cc(-c3cncc(OC4CCNCC4)c3)ccc21` [Example 62, 1-Methyl-6-[5-(piperidin-4-yloxy)-pyridin-3-yl]-3,4-dihydro-1H-quinolin-2-one hydrochloride], the EC50 in experiment [1] worked out at 177 nM; in experiment [2] it was 8540 nM.

For `CN1C(=O)CCc2cc(-c3cncc(OC[C@@H]4CCN4)c3)ccc21` [Example 63, 6-[5-((S)-1-Azetidin-2-ylmethoxy)-pyridin-3-yl]-1-methyl-3,4-dihydro-1H-quinolin-2-one], the EC50 was 731 nM in experiment [1] and 16000 nM in experiment [2].

With `CN1C(=O)CCc2cc(-c3cncc(O[C@@H]4CCNC4)c3)c(F)cc21` [Example 67, 7-Fluoro-1-methyl-6-[5-((R)-pyrrolidin-3-yloxy)-pyridin-3-yl]-3,4-dihydro-1H-quinolin-2-one hydrochloride], the EC50 in experiment [1] turned out to be 160 nM; in experiment [2], 7670 nM.

Regarding `CN1C(=O)CCc2cc(-c3cncc(O[C@@H]4CCNC4)c3)ccc21` [Example 68, 1-Methyl-6-[5-((R)-pyrrolidin-3-yloxy)-pyridin-3-yl]-3,4-dihydro-1H-quinolin-2-one hydrochloride], the EC50 in experiment [1] was determined as 350 nM; in experiment [2] it was 33700 nM.

Turning to `CN1C(=O)CCc2cc(-c3cncc(C4(N)COC4)c3)ccc21` [Example 69, 6-[5-(3-Amino-oxetan-3-yl)-pyridin-3-yl]-1-methyl-3,4-dihydro-1H-quinolin-2-one hydrochloride], the figures for the EC50 in experiment [1] and in experiment [2] were 411 nM and 3490 nM, respectively.

`CN1C(=O)CCc2cc(-c3cncc(OC4CNC4)c3)ccc21` [Example 70, 6-[5-(Azetidin-3-yloxy)-pyridin-3-yl]-1-methyl-3,4-dihydro-1H-quinolin-2-one hydrochloride]: the figures for the EC50 in experiment [1] and in experiment [2] were 202 nM and 15600 nM, respectively.

Take `CN1C(=O)CCc2cc(-c3cncc(O[C@H]4CC[C@H](N)CC4)c3)ccc21` [Example 71, 6-[5-((trans)-4-amino-cyclohexyloxy)-pyridin-3-yl]-1-methyl-3,4-dihydro-1H-quinolin-2-one hydrochloride]: the EC50 worked out at 81 nM in experiment [1] and 2500 nM in experiment [2].

For the compound `CN1C(=O)CCc2cc(-c3cncc(C(C)(C)N)c3)ccc21` [Example 72, 6-[5-(1-Amino-1-methyl-ethyl)-pyridin-3-yl]-1-methyl-3,4-dihydro-1H-quinolin-2-one], the EC50 in experiment [1] was 7 nM; in experiment [2], 101 nM.

As to `CN1C(=O)CCc2cc(-c3cncc(CN)c3)c(F)cc21` [Example 73, 6-(5-Aminomethyl-pyridin-3-yl)-7-fluoro-1-methyl-3,4-dihydro-1H-quinolin-2-one], the values for the EC50 in experiment [1] and in experiment [2] were 17 nM and 575 nM, respectively.

In the case of `Cc1noc(C)c1C(=O)NCc1cncc(-c2ccc3c(c2)CCC(=O)N3C)c1` [Example 75, 3,5-Dimethyl-isoxazole-4-carboxylic acid [5-(1-methyl-2-oxo-1,2,3,4-tetrahydro-quinolin-6-yl)-pyridin-3-ylmethyl]-amide], the EC50 in experiment [1] is 8 nM; in experiment [2] it was 509 nM.

For the compound `CN1C(=O)CCc2cc(-c3cncc(O[C@H]4CCN(C(=O)C5CC5)C4)c3)ccc21` [Example 76, 6-[5-((S)-1-Cyclopropanecarbonyl-pyrrolidin-3-yloxy)-pyridin-3-yl]-1-methyl-3,4-dihydro-1H-quinolin-2-one], the figures for the EC50 in experiment [1] and in experiment [2] were 23 nM and 452 nM, respectively.

Consider `CC(C)CC(=O)NCc1cncc(-c2ccc3c(c2)CCC(=O)N3C)c1` [Example 77], for which the EC50 in experiment [1] amounted to 42 nM; in experiment [2] it was 223 nM.

With `CN1C(=O)CCc2cc(-c3cncc(CNC(=O)CC(F)(F)F)c3)ccc21` [Example 78], the results for the EC50 in experiment [1] and in experiment [2] were 121 nM and 1140 nM, respectively.

For the compound `CN1C(=O)CCc2cc(-c3cncc(CNC(=O)C(C)(C)O)c3)ccc21` [Example 79], the EC50 worked out at 35 nM in experiment [1] and 302 nM in experiment [2].

As to `Cc1nnc(C(=O)NCc2cncc(-c3ccc4c(c3)CCC(=O)N4C)c2)o1` [Example 80], the EC50 in experiment [1] is 43 nM; in experiment [2] it was 493 nM.

In the case of `CCC(=O)N1CCC[C@H](Oc2cncc(-c3ccc4c(c3)CCC(=O)N4C)c2)C1` [Example 81], the results for the EC50 in experiment [1] and in experiment [2] were 172 nM and 4640 nM, respectively.

Regarding `COc1ncc(C(=O)NCc2cncc(-c3ccc4c(c3)CCC(=O)N4C)c2)cn1` [Example 82], the values for the concentration for a half-maximal effect (EC50) in experiment [1] and in experiment [2] were 8 nM and 20 nM, respectively.

Regarding `CN1C(=O)CCc2cc(-c3cncc(CNC(=O)c4nccn4C)c3)ccc21` [Example 83], the EC50 in experiment [1] is 9 nM; in experiment [2], 46 nM.

Turning to `CN1C(=O)CCc2cc(-c3cncc(CNC(=O)c4coc(C(F)(F)F)c4)c3)ccc21` [Example 84], the EC50 in experiment [1] was determined as 34 nM; in experiment [2], 526 nM.

`CN1C(=O)CCc2cc(-c3cncc(CNC(=O)c4cccnn4)c3)ccc21` [Example 85]: the EC50 was determined as 3 nM in experiment [1] and 48 nM in experiment [2].

Take `CN1C(=O)CCc2cc(-c3cncc(CNC(=O)c4cncnc4)c3)ccc21` [Example 86]: the figures for the EC50 in experiment [1] and in experiment [2] were 4 nM and 108 nM, respectively.

`CN1C(=O)CCc2cc(-c3cncc(CNC(=O)c4cnn(C)c4)c3)ccc21` [Example 87, 1-Methyl-1H-pyrazole-4-carboxylic acid [5-(1-methyl-2-oxo-1,2,3,4-tetrahydro-quinolin-6-yl)-pyridin-3-ylmethyl]-amide]: the results for the EC50 in experiment [1] and in experiment [2] were 17 nM and 1070 nM, respectively.

In the case of `CCC(=O)N1CCC(Oc2cncc(-c3ccc4c(c3)CCC(=O)N4C)c2)CC1` [Example 88], the EC50 in experiment [1] was 1 nM; in experiment [2], 13 nM.

As for `CN1C(=O)CCc2cc(-c3cncc(CNC(=O)c4ccnnc4)c3)ccc21` [Example 89], the 50% effective concentration (EC50) is 14 nM in experiment [1] and 276 nM in experiment [2].

`CCC(=O)N1CC[C@H](Oc2cncc(-c3ccc4c(c3)CCC(=O)N4C)c2)C1` [Example 90]: the EC50 stood at 11 nM in experiment [1] and 1500 nM in experiment [2].
